Laboratory results: PMC4898691, “Structure of a Berberine Bridge Enzyme-Like Enzyme with an Active Site Specific to the Plant Family Brassicaceae” (PLoS ONE, 2016)

Target: T1, AtBBE-like 28 (Arabidopsis thaliana, UniProt Q9FI21)
T1 construct: gene At5g44440; two chains in asymmetric unit
T1 sequence (Q9FI21 28-533): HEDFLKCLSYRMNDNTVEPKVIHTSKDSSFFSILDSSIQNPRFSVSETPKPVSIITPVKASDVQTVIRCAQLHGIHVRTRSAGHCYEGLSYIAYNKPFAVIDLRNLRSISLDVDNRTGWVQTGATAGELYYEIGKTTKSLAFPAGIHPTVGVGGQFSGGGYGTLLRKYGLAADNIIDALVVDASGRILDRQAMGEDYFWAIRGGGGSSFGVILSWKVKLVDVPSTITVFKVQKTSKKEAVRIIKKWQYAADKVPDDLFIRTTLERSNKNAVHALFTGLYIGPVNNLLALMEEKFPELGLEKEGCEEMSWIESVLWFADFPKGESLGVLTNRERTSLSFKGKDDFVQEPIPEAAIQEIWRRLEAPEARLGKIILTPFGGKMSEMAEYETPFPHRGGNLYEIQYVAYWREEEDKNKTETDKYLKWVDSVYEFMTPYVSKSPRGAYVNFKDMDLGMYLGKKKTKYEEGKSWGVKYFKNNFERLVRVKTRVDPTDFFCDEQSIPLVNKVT
Assay: X-ray crystallography ([…] A)
Format: binding
Conditions: covalent; mono-covalent, His111 to flavin 8alpha-position; crystals at 277 K, HEPES pH 7.0, Jeffamine ED 2001

Cc1cc2nc3c(=O)[nH]c(=O)nc-3n(C[C@H](O)[C@H](O)[C@H](O)COP(=O)(O)OP(=O)(O)OC[C@H]3O[C@@H](n4cnc5c(N)ncnc54)[C@H](O)[C@@H]3O)c2cc1C [FAD]
X-ray crystallography (1.85 A): the covalent linkage established by the conserved GGHD motif was clearly seen in the crystal structure
